Drawing on PubChem BioAssay (NCI), this text covers TGI for 21 molecules.

Common to all, as to assay: NCI anticancer screen, dose series, 48 h
Assay [1] concerns 786-0 renal.
Assay [2] has as its system ACHN renal.
The test system of assay [3] is HL-60(TB) leukemia.
In assay [4] the test system is MOLT-4 leukemia.
Assay [5] relates to NCI-H460 lung.
Assay [6] relates to OVCAR-4 ovarian.
Assay [7] deals with SF-539 CNS.
The test system of assay [8] is SK-MEL-5 melanoma.
In assay [9] the test system is CAKI-1 renal.

SMILES strings stand for the structures.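 Dose response: 5 concentrations. Exposure: 48 h. Format: 96-well plates. Endpoint: linear interpolation; highest concentration if not reached. TGI: concentration producing complete growth inhibition.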 Where a SMILES comes first, the peptide text is derived from it. [ ]: non-standard residue; d: D form. The star is where a group is joined. ξ: configuration not given here. NMeF = CN[CH](Cc1ccccc1)C(=O)O; ξNMe2Val = CC(C)C(C(=O)*)N(C)C; NMeV = CN[CH](C(=O)O)C(C)C; ξNMeV = CNC(C(=O)O)C(C)C; Boc = CC(C)(C)OC(=O)*; OBn = c1ccc(CO*)cc1; OtBu = CC(C)(C)O*

Consider `COC(=O)C(CCC1(C)OCCO1)=[N+]=[N-]`, for which the TGI in assay [1], in [2], in assay [3], in assay [4], in assay [5] and in [6] was over 100 µM throughout. In addition, the TGI in [7] and in assay [8] was over 100 µM throughout.

For `CCCCOC(=O)NC(=O)c1cn(CCCOC(=O)CCCCCCCCC(=O)OCCCn2cc(C(=O)NC(=O)OCCCC)c(=O)n(C)c2=O)c(=O)n(C)c1=O`, the TGI in assay [1], in assay [2], in assay [9], in assay [3], in [4] and in [5] was over 100 µM each time. Moreover, the TGI in [6], in assay [7] and in assay [8] was over 100 µM throughout.

In the case of `O=C1[C@@H]2C(c3ccccc3[N+](=O)[O-])=NO[C@@H]2C(=O)N1c1ccc(Cc2ccc(N3C(=O)[C@H]4C(c5ccccc5[N+](=O)[O-])=NO[C@H]4C3=O)cc2)cc1`, the TGI in assay [1], in assay [2], in assay [9], in assay [4], in [5] and in [6] was over 100 µM each time. Moreover, the TGI in [7] and in assay [8] was over 100 µM in each case.

With `CC(C)C(C(=O)N(C)C(Cc1ccccc1)C(=O)N(C)C(C(=O)N(C)C(C(=O)N1CCCC1C(=O)OC(C)(C)C)C(C)C)C(C)C)N(C)C` (stereo not given) (ξNMe2Val-[NMeF][NMeV][NMeV]P-OtBu; configuration not given here), the TGI was over 100 µM in [1]; over 100 µM in assay [2]; 94.7 µM in [3]; 33.7 µM in assay [4]; over 100 µM in assay [5]; over 100 µM in assay [7]. The molecule further gave a TGI in assay [8] of 38.8 µM.

In the case of `N#COc1ccc(Oc2ccc(OC#N)cc2)cc1`, the TGI in assay [1], in [2], in [9], in [3], in [4] and in [5] was over 100 µM each time. In addition, the TGI in assay [6], in assay [7] and in [8] was over 100 µM each time.

Consider `CC(=O)OCC1OC(n2c(=S)n(-c3ccccc3)c(=O)c3cc(Br)ccc32)C(OC(C)=O)C1OC(C)=O` (stereo not given), for which the TGI in assay [1], in assay [2], in assay [9], in assay [4], in assay [5] and in [6] was over 100 µM in each case. Moreover, the TGI in [7] and in [8] was over 100 µM in each case.

Take `CCCCCCCCCCCC[N+]12CC[N+](C)(CC1)CC2`: the TGI is 26.8 µM in assay [1]; over 100 µM in [2]; 30.9 µM in assay [9]; 40.4 µM in assay [3]; over 100 µM in assay [4]; 26.5 µM in assay [5]. Besides, the TGI in assay [6], in assay [7] and in assay [8] was over 100 µM each time.

Take `Brc1ccc(-c2cc3c(cc2C2SCCS2)OCO3)cc1`: the TGI in [1], in assay [2], in [3], in [4], in [5] and in assay [6] was over 100 µM each time. Further, the TGI in [7] is 39.1 µM; in assay [8], over 100 µM.

For the molecule `CN(C)CCC[N+]1=Nc2cccc3cccc(c23)N1`, the TGI in assay [1] is over 100 µM; in assay [2] it was over 100 µM; in assay [9], over 100 µM; in [3] it was 47.5 µM; in [4], 62.4 µM; in [5] it was over 100 µM. The TGI in [6] is over 100 µM; in assay [7], over 100 µM; in assay [8], 34.2 µM.

Consider `COc1ccc(C2=Nc3ccccc3N=C(SC)C2)cc1`, for which the TGI is over 100 µM in assay [1]; over 100 µM in assay [2]; over 100 µM in assay [9]; 43 µM in assay [3]; over 100 µM in assay [4]; 71.9 µM in [5]. The TGI in assay [6], in assay [7] and in assay [8] was over 100 µM in each case.

For the molecule `O=C1Nc2ccc(Cl)c(I)c2C1=O`, the TGI was determined as 36.8 µM in [1]; 30.7 µM in assay [2]; 37.9 µM in assay [9]; 41.3 µM in assay [3]; 54.6 µM in [4]; 39.7 µM in [5]. For the same molecule, the TGI in [6] was 32 µM; in assay [8], 34.9 µM.

As for `CCCCCCCCCCCCCS(=O)(=O)NCC(N)=O`, the TGI in assay [1], in assay [2], in [3], in assay [5], in assay [6] and in [7] was over 100 µM each time. In assay [8], the TGI is over 100 µM.

Regarding `CSC(C1c2ccccc2N(C)c2[nH]c(=O)n(C)c(=O)c21)S(=O)(=O)c1ccc(C)cc1` (stereo not given), the TGI in [1], in assay [9], in assay [3], in [4], in [6] and in [7] was over 100 µM each time. The TGI in assay [8] was over 100 µM.

Regarding `Cc1ccc(S(=O)(=O)NNS(C)(=O)=O)cc1`, the TGI in assay [1], in [2], in [9], in assay [4], in assay [5] and in [6] was over 100 µM in each case. For the same molecule, the TGI in assay [7] and in [8] was over 100 µM throughout.

As to `Cc1ccc(Nc2nc(-c3ccc(-c4ccc([N+](=O)[O-])cc4)o3)cs2)cc1`, the TGI in assay [1], in assay [2], in assay [9], in [3], in assay [4] and in assay [5] was over 100 µM throughout. In addition, the TGI in assay [6] and in [7] was over 100 µM throughout.

Take `CC(C)C(C(=O)N(C)[C@H](C(=O)N1CCC[C@H]1C(=O)N(C)[C@@H](Cc1ccccc1)C(=O)OCc1ccccc1)C(C)C)N(C)C(=O)[C@@H](NC(=O)OC(C)(C)C)C(C)C` (stereo not given in full) (Boc-V[ξNMeV][NMeV]P[NMeF]-OBn): the TGI is over 71.3 µM in [1]; over 100 µM in [2]; over 31.6 µM in assay [9]; 8.25 µM in assay [3]; 21.3 µM in assay [4]; over 31.6 µM in assay [5]. Besides, the TGI was over 100 µM in [6], over 31.6 µM in [7] and 15.5 µM in [8].

With `CC(=O)OCC1OC(N=[N+]=[N-])C(OC(C)=O)C(OC(C)=O)C1OC1OC(COC(C)=O)C(OC(C)=O)C(OC(C)=O)C1OC(C)=O` (stereo not given), the TGI in [1], in assay [2], in assay [9], in [3], in assay [4] and in [5] was over 100 µM throughout. The TGI in assay [6], in assay [7] and in assay [8] was over 100 µM each time.

Regarding `CCN(CC)c1c(C)nnn1C1OC(COC(C)=O)C(OC(C)=O)C(OC(C)=O)C1OC(C)=O` (stereo not given), the TGI in assay [1], in assay [2], in assay [9], in assay [3], in assay [4] and in [5] was over 100 µM throughout. The TGI in assay [6], in [7] and in [8] was over 100 µM in each case.

Turning to `CC#COS(=O)(=O)c1ccc(C)cc1`, the TGI in assay [1] is over 100 µM; in [2] it was over 100 µM; in assay [9], over 100 µM; in assay [3] it was 59.8 µM; in assay [4] it was over 100 µM; in assay [5] it was over 100 µM. Further, the TGI in assay [6], in assay [7] and in assay [8] was over 100 µM each time.

On to `O=C(NC1=C(Cl)C(=O)c2ccccc2C1=O)C(=O)C(C(=O)c1ccc2ccccc2c1)C1OC(=O)c2ccccc21` (stereo not given), for which the TGI turned out to be 20.6 µM in [1]; 21.1 µM in [2]; 23.2 µM in assay [9]; 7.6 µM in [3]; 14.1 µM in assay [4]; 12 µM in [5]. Further, the TGI turned out to be 19.8 µM in assay [6], 9.66 µM in assay [7] and 1.96 µM in assay [8].

For the molecule `COc1ccc([C@H]2CC3C(=O)N(c4ccc(OC)cc4)C(=O)C3c3[nH]c4ccccc4c32)cc1` (stereo not given in full), the TGI in assay [1] is 47.7 µM; in assay [2], over 100 µM; in [9], over 100 µM; in assay [4], over 100 µM; in assay [5] it was over 100 µM; in assay [6], over 100 µM. For the same molecule, the TGI is 51.6 µM in [7] and over 100 µM in [8].
